# Test results reported in patent publication US10399976B2, “Dihydropyrrolopyridine inhibitors of ROR-gamma” (Vitae Pharmaceuticals, LLC, priority 2014, dated 2019).
# Key:
# [1] = molecular target: recombinant RORγ Ligand Binding Domain (LBD) (Homo sapiens (Human), UniProt P51449); assay: Radio-Ligand RORγ Binding Assay (Assay 1); conditions: cell-free competition with 25-hydroxy [26,27-3H]-cholesterol, SPA; read-out: RORγ Binding Ki Range*
# Protocol: Radio-Ligand ROR ? Binding Assay (Assay 1)
# Compounds of the present invention were tested for ability to bind to ROR ? in a cell-free competition assay with commercially available radio-ligand (RL), 25-hydroxy [26,27-^3H]-cholesterol (PerkinElmer, Cat. # NET674250UC), for a ligand binding site on a recombinant ROR ? Ligand Binding Domain (LBD) protein expressed as a 6×His-Glutathione-S-Transferase (GST) fusion. […] The plate was shaken at 700 rpm for 20 min and incubated for 10 min at rt, after which 40 μL of poly-Lys YSi SPA beads (PerkinElmer, Cat. # RPNQ0010) were added to achieve 50 μg of the beads per well. The plate was incubated on an orbital shaker for 20 min and then for 10 min without agitation at rt. SPA signal for tritium beta radiation was registered on PerkinElmer Microbeta plate reader. […] The percent inhibition vs. concentration data were fit into a four-parameter model, and IC50 values were calculated from the fit as the concentrations corresponding to the inflection points on the dose-response curves.
# [2] = molecular target: full-length RORγt in Jurkat cells (Homo sapiens (Human), UniProt P51449); assay: RORγt 5×RORE Assay in Jurkat Cells (Assay 2); format: cell-based; conditions: Nanoluc luciferase reporter, 16-18 hrs, read-out: RORγt5X IC50 Range*
# full-length RORγt in Jurkat cells, sequence (P51449 other isoform, or with tags, fused parts or gaps): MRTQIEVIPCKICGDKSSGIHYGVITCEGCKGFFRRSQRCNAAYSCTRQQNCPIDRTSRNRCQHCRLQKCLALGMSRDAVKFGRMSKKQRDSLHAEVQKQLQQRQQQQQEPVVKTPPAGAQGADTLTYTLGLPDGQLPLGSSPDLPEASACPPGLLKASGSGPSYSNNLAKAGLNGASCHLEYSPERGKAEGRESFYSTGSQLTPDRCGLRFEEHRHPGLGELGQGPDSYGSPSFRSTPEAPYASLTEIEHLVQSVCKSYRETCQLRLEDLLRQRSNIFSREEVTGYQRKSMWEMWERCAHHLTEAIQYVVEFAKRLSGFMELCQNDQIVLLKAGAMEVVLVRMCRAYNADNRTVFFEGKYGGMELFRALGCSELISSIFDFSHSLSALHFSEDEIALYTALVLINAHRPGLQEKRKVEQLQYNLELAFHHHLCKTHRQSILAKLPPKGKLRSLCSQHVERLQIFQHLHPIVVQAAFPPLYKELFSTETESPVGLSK
# Protocol: [formula] ROR ? t 5×RORE Assay in Jurkat Cells (Assay 2)
# Compounds of the present invention were tested for ROR ? inverse agonist activity in a cell-based, transcriptional activity assay. […] (Promega, Cat. # N1021) using KpnI and HindIII restriction sites. […] Luciferase activity in the conditioned supernatants was determined with NanoGlo® assay reagents (Promega, Cat.# N1130).
# recombinant RORγ Ligand Binding Domain (LBD), sequence (P51449 269-508): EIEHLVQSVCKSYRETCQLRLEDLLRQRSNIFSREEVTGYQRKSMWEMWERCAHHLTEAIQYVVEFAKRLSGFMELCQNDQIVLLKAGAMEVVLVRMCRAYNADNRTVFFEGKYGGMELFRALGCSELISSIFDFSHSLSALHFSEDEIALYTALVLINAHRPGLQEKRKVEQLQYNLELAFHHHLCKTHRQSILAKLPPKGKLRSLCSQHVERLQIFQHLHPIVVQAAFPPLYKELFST
Ki [1] [nM],IC50 [2] [nM],Compound
> 1000,,CC(C)[C@H]1c2ncc(C(=O)NCc3ccnn3C)cc2CN1Cc1ccc(C(F)(F)F)cc1 [Compound 73]
100 to 1000,,CC(C)[C@H]1c2ncc(C(=O)NCc3cnn(C)c3)cc2CN1Cc1ccc(C(F)(F)F)cc1 [Compound 76]
< 100,100 to 1000,CCS(=O)(=O)n1cc(CNC(=O)c2cnc3c(c2)CN(Cc2ccc(C(F)(F)F)cc2)[C@H]3C(C)C)cn1 [Compound 133]
